This is an account of results in ChEMBL document CHEMBL4270534, “Novel carbazole-triazole conjugates as DNA-targeting membrane active potentiators against clinical isolated fungi” (Eur J Med Chem, 2018).

As a reminder, the MIC is the lowest concentration found to suppress growth. As a reminder, the MFC is the smallest concentration meeting the test's criterion for killing the fungus. Lower therefore signals more potent killing.

In brackets after ≈: the same amount, converted by molar mass.

Common to all, as to format: functional
Experiment [1] concerns Escherichia coli. Put plainly: Antibacterial activity against Escherichia coli ATCC 25922 after 24 hrs by micro broth dilution method. To be noted: ATCC 25922, 24 h. In general terms: In broth dilution the organism is exposed to a series of concentrations in liquid medium.
The test system of experiment [2] is Candida parapsilosis. Put plainly: Fungicidal activity against Candida parapsilosis ATCC 22019 incubated for 24 hrs followed by plating onto tryptic soy agar medium and measured after 24 hrs by broth microdilution method. To be noted: Lodderomyces parapsilosis, ATCC 22019, 24 h.
For experiment [3], the system named is Candida tropicalis. Put plainly: Synergistic antifungal activity against Candida tropicalis after 18 hrs in presence of fluconazole by checkerboard assay.
Experiment [4] concerns Aspergillus fumigatus. Put plainly: Antifungal activity against Aspergillus fumigatus after 24 hrs by two-fold broth microdilution assay.
Experiment [5] relates to Enterococcus faecalis. Put plainly: Antibacterial activity against Enterococcus faecalis after 24 hrs by micro broth dilution method.
Experiment [6] concerns Aspergillus fumigatus. Put plainly: Synergistic antifungal activity against Aspergillus fumigatus after 18 hrs in presence of fluconazole by checkerboard assay.
In experiment [7] the test system is Acinetobacter baumannii. Put plainly: Antibacterial activity against Acinetobacter baumannii after 24 hrs by micro broth dilution method.
Experiment [8] concerns Candida parapsilosis. Put plainly: Antifungal activity against Candida parapsilosis ATCC 22019 after 24 hrs by two-fold broth microdilution assay. To be noted: Lodderomyces parapsilosis, ATCC 22019, 24 h.
Experiment [9] concerns Candida tropicalis. Put plainly: Antifungal activity against Candida tropicalis after 24 hrs by two-fold broth microdilution assay.
Experiment [10] concerns Staphylococcus aureus. Put plainly: Antibacterial activity against Staphylococcus aureus ATCC 25923 after 24 hrs by micro broth dilution method. The note with it: ATCC 25923, 24 h.
In experiment [11] the test system is Candida albicans. Put plainly: Antifungal activity against Candida albicans after 24 hrs by two-fold broth microdilution assay.
Experiment [12] concerns Pseudomonas aeruginosa. Put plainly: Antibacterial activity against Pseudomonas aeruginosa ATCC 27853 after 24 hrs by micro broth dilution method. To be noted: ATCC 27853, 24 h.
The test system of experiment [13] is Candida albicans. Put plainly: Ratio of MFC to MIC for Candida albicans.
Experiment [14] concerns Candida albicans. Put plainly: Antifungal activity against Candida albicans ATCC 90023 after 24 hrs by two-fold broth microdilution assay. To be noted: ATCC 90023, 24 h.
The test system of experiment [15] is Klebsiella pneumoniae. Put plainly: Antibacterial activity against Klebsiella pneumoniae after 24 hrs by micro broth dilution method.
Experiment [16] has as its system Candida tropicalis. Put plainly: Ratio of MFC to MIC for Candida tropicalis.
In experiment [17] the test system is Staphylococcus aureus. Put plainly: Antibacterial activity against Staphylococcus aureus after 24 hrs by micro broth dilution method.
For experiment [18], the system named is Staphylococcus aureus. Put plainly: Antibacterial activity against Staphylococcus aureus ATCC 29213 after 24 hrs by micro broth dilution method. To be noted: ATCC 29213, 24 h.
For experiment [19], the system named is Candida tropicalis. Put plainly: Fungicidal activity against Candida tropicalis incubated for 24 hrs followed by plating onto tryptic soy agar medium and measured after 24 hrs by broth microdilution method.
Experiment [20] relates to Candida tropicalis. Put plainly: Synergistic antifungal activity against Candida tropicalis assessed as FIC index after 18 hrs in presence of fluconazole by checkerboard assay.
Experiment [21] relates to Pseudomonas aeruginosa. Put plainly: Antibacterial activity against Pseudomonas aeruginosa after 24 hrs by micro broth dilution method.
In experiment [22] the test system is Candida albicans. Put plainly: Synergistic antifungal activity against Candida albicans assessed as FIC index after 18 hrs in presence of fluconazole by checkerboard assay.
Experiment [23] has as its system Staphylococcus aureus. Put plainly: Antibacterial activity against methicillin-resistant Staphylococcus aureus after 24 hrs by micro broth dilution method.
Experiment [24] has as its system Candida albicans. Put plainly: Fungicidal activity against Candida albicans incubated for 24 hrs followed by plating onto tryptic soy agar medium and measured after 24 hrs by broth microdilution method.
For experiment [25], the system named is Candida parapsilosis. Put plainly: Ratio of MFC to MIC for Candida parapsilosis ATCC 22019.
Experiment [26] concerns Aspergillus fumigatus. Put plainly: Synergistic antifungal activity against Aspergillus fumigatus assessed as FIC index after 18 hrs in presence of fluconazole by checkerboard assay.
Experiment [27] concerns Escherichia coli. Put plainly: Antibacterial activity against Escherichia coli after 24 hrs by micro broth dilution method.
The subject of experiment [28] is Candida albicans. Put plainly: Synergistic antifungal activity against Candida albicans after 18 hrs in presence of fluconazole by checkerboard assay.

On to `OC(Cn1cncn1)(Cn1c2ccccc2c2ccccc21)c1ccc(F)cc1F` (stereo not drawn), for which the minimum inhibitory concentration (MIC) was determined as 128 mg/L (≈ 317 µM) in experiment [1]; 4 mg/L in [3]; 128 mg/L (≈ 317 µM) in experiment [4]; 16 mg/L (≈ 39.6 µM) in [5]; 32 mg/L in experiment [6]; 128 mg/L (≈ 317 µM) in experiment [7]. Also, the MIC stood at 8 mg/L (≈ 19.8 µM) in [8]; 8 mg/L (≈ 19.8 µM) in experiment [9]; 32 mg/L (≈ 79.1 µM) in experiment [10]; 32 mg/L (≈ 79.1 µM) in experiment [11]; 256 mg/L (≈ 633 µM) in experiment [12]; 16 mg/L (≈ 39.6 µM) in experiment [14]. The MIC was found to be 64 mg/L (≈ 158 µM) in experiment [15]; 64 mg/L (≈ 158 µM) in [17]; 32 mg/L (≈ 79.1 µM) in [18]; 128 mg/L (≈ 317 µM) in [21]; 64 mg/L (≈ 158 µM) in [23]; 128 mg/L (≈ 317 µM) in experiment [27]. Further, in experiment [28], the minimum inhibitory concentration (MIC) came out at 2 mg/L. Besides, the figures for the minimum fungicidal concentration (MFC) in experiment [2], in experiment [19] and in experiment [24] were 32 mg/L (≈ 79.1 µM), 16 mg/L (≈ 39.6 µM) and 32 mg/L (≈ 79.1 µM), respectively. Further, the Ratio in experiment [13] is reported as 1; in experiment [16], 2; in experiment [25] it was 4. Also, the results for the “fractional inhibitory concentration index (FICI)” value in [20], in [22] and in experiment [26] were 1, 0.56 and 0.37, respectively.
With `CCn1cc(C(=O)O)c(=O)c2cc(F)c(N3CCNCC3)cc21` [NORFLOXACIN], the MIC is 8 mg/L (≈ 25.1 µM) in experiment [1]; 4 mg/L (≈ 12.5 µM) in [5]; 8 mg/L (≈ 25.1 µM) in experiment [7]; 1 mg/L (≈ 3.13 µM) in [10]; 0.5 mg/L (≈ 1.57 µM) in experiment [12]; 4 mg/L (≈ 12.5 µM) in experiment [15]. Further, the minimal inhibitory concentration (MIC) in experiment [17] turned out to be 2 mg/L (≈ 6.26 µM); in experiment [18], 8 mg/L (≈ 25.1 µM); in [21] it was 2 mg/L (≈ 6.26 µM); in experiment [23] it was 8 mg/L (≈ 25.1 µM); in [27], 16 mg/L (≈ 50.1 µM).
On to `CC(C)(C)c1ccc2c(c1)c1cc(C(C)(C)C)ccc1n2CC(O)(Cn1cncn1)c1ccc(F)cc1F` (stereo not drawn), for which the minimum inhibitory concentration (MIC) in experiment [1] was 128 mg/L (≈ 248 µM); in experiment [4] it was 256 mg/L (≈ 496 µM); in [5], 128 mg/L (≈ 248 µM); in [7] it was 256 mg/L (≈ 496 µM); in experiment [8] it was 64 mg/L (≈ 124 µM); in [9] it was 64 mg/L (≈ 124 µM). Moreover, the minimum inhibitory concentration (MIC) in [10] came out at 32 mg/L (≈ 61.9 µM); in experiment [11] it was 64 mg/L (≈ 124 µM); in [12] it was 64 mg/L (≈ 124 µM); in experiment [14], 128 mg/L (≈ 248 µM); in experiment [15] it was 32 mg/L (≈ 61.9 µM); in experiment [17], 256 mg/L (≈ 496 µM). Besides, the MIC stood at 256 mg/L (≈ 496 µM) in experiment [18], 128 mg/L (≈ 248 µM) in experiment [21], 64 mg/L (≈ 124 µM) in [23] and 128 mg/L (≈ 248 µM) in [27].
Consider `OC(Cn1cncn1)(Cn1c2ccc(Br)cc2c2cc(Br)ccc21)c1ccc(Cl)c(Cl)c1` (stereo not drawn), for which the minimal inhibitory concentration (MIC) in experiment [1] is 32 mg/L (≈ 53.8 µM); in [4], 32 mg/L (≈ 53.8 µM); in [5], 16 mg/L (≈ 26.9 µM); in experiment [7] it was 128 mg/L (≈ 215 µM); in experiment [8] it was 16 mg/L (≈ 26.9 µM); in experiment [9] it was 8 mg/L (≈ 13.4 µM). Besides, the minimum inhibitory concentration (MIC) in experiment [10] worked out at 16 mg/L (≈ 26.9 µM); in experiment [11], 4 mg/L (≈ 6.72 µM); in experiment [12], 32 mg/L (≈ 53.8 µM); in experiment [14], 32 mg/L (≈ 53.8 µM); in [15], 128 mg/L (≈ 215 µM); in experiment [17] it was 64 mg/L (≈ 108 µM). The minimum inhibitory concentration (MIC) was found to be 32 mg/L (≈ 53.8 µM) in experiment [18], 64 mg/L (≈ 108 µM) in experiment [21], 8 mg/L (≈ 13.4 µM) in experiment [23] and 64 mg/L (≈ 108 µM) in experiment [27]. Also, the minimum fungicidal concentration (MFC) in experiment [2] worked out at 32 mg/L (≈ 53.8 µM); in experiment [19] it was 8 mg/L (≈ 13.4 µM); in experiment [24], 16 mg/L (≈ 26.9 µM). The Ratio in experiment [13] is 4; in [16] it was 1; in experiment [25], 2.
For the compound `OC(Cn1cncn1)(Cn1c2ccccc2c2cc(I)ccc21)c1ccc(F)cc1F` (stereo not drawn), the minimal inhibitory concentration (MIC) in experiment [1] turned out to be 32 mg/L (≈ 60.3 µM); in [4] it was 64 mg/L (≈ 121 µM); in experiment [5], 16 mg/L (≈ 30.2 µM); in experiment [7], 128 mg/L (≈ 241 µM); in experiment [8], 32 mg/L (≈ 60.3 µM); in [9], 16 mg/L (≈ 30.2 µM). Further, the minimum inhibitory concentration (MIC) in [10] was found to be 16 mg/L (≈ 30.2 µM); in [11], 16 mg/L (≈ 30.2 µM); in experiment [12], 256 mg/L (≈ 483 µM); in experiment [14], 64 mg/L (≈ 121 µM); in [15], 256 mg/L (≈ 483 µM); in experiment [17] it was 128 mg/L (≈ 241 µM). Also, the minimum inhibitory concentration (MIC) in [18] is 16 mg/L (≈ 30.2 µM); in experiment [21], 128 mg/L (≈ 241 µM); in experiment [23] it was 32 mg/L (≈ 60.3 µM); in experiment [27], 256 mg/L (≈ 483 µM).
